These are literature values, as cited in patent publication US20100323028A1, “METHOD AND COMPOSITION FOR TREATING PULMONARY HEMORRHAGE” (JBS UNITED, INC., priority 2007, published 2010).

Molecules are shown by their SMILES.

The subject of this data set is horses. As to conditions: alone or in combination not able to totally eliminate EIPH.

Regarding `NS(=O)(=O)c1cc(C(=O)O)c(NCc2ccco2)cc1Cl` [furosemide], the “Effect on EIPH” value is listed as “effective in reducing EIPH”.
